Results from patent US10946051B2, “Strain of Bifidobacterium animalis subsp. lactis CECT 8145 and use thereof for the treatment and/or prevention of excess weight and obesity and associated diseases” (priority 2013, dated 2021).
Values after ≈ are worked out from the molar mass of the structure shown. Read-outs that look alike come from different tables or passages of the source.

Test system: strain BIF-1
Assay: Antibiotic resistance profile (minimum inhibitory concentration)
Format: cell-based, Bifidobacterium animalis subsp. lactis
Experimental: Specifically, the production of unwanted metabolites was evaluated: lactic acid isomer production (Table 9), bile-salt deconjugation (Table 10) and biogenic amine production (Table 11), and the antibiotic resistance profile (Table 12).

[1] = Bifidobacterium animalis, BIF1; read-out: CMI (minimum inhibitory concentration of antibiotics)

Row | Molecule | MIC [1] [µg/mL] | other results
1 | CC1(C)S[C@@H]2[C@H](NC(=O)[C@H](N)c3ccccc3)C(=O)N2[C@H]1C(=O)O [Ampicillin] | 2 (≈ 5.72 µM) | –
2 | O=C(N[C@H](CO)[C@H](O)c1ccc([N+](=O)[O-])cc1)C(Cl)Cl [Chloramphenicol] | 4 (≈ 12.4 µM) | –
3 | CC[C@H]1OC(=O)[C@H](C)[C@@H](O[C@H]2C[C@@](C)(OC)[C@@H](O)[C@H](C)O2)[C@H](C)[C@@H](O[C@@H]2O[C@H](C)C[C@H](N(C)C)[C@H]2O)[C@](C)(O)C[C@@H](C)C(=O)[C@H](C)[C@@H](O)[C@]1(C)O [Erythromycin] | 0.5 (≈ 0.681 µM) | –
4 | NC[C@H]1O[C@H](O[C@H]2[C@H](O)[C@@H](O[C@H]3O[C@H](CO)[C@@H](O)[C@H](N)[C@H]3O)[C@H](N)C[C@@H]2N)[C@H](O)[C@@H](O)[C@@H]1O [Kanamycin] | 128 (≈ 264 µM) | –
5 | [H]/N=C(/N)N[C@H]1[C@H](O)[C@@H](O)[C@H](O[C@@H]2O[C@@H](C)[C@](O)(C=O)[C@H]2O[C@@H]2O[C@@H](CO)[C@H](O)[C@@H](O)[C@@H]2NC)[C@@H](N/C(N)=N\[H])[C@@H]1O [Streptomycin] | 128 (≈ 220 µM) | –
6 | CN(C)[C@@H]1C(O)=C(C(N)=O)C(=O)[C@@]2(O)C(O)=C3C(=O)c4c(O)cccc4[C@@](C)(O)[C@H]3C[C@@H]12 [Tetracycline] | 8 (≈ 18 µM) | –
7 | CN[C@H](CC(C)C)C(=O)N[C@H]1C(=O)N[C@@H](CC(N)=O)C(=O)N[C@H]2C(=O)N[C@H]3C(=O)N[C@H](C(=O)N[C@H](C(=O)O)c4cc(O)cc(O)c4-c4cc3ccc4O)[C@H](O)c3ccc(c(Cl)c3)Oc3cc2cc(c3O[C@@H]2O[C@H](CO)[C@@H](O)[C@H](O)[C@H]2O[C@H]2C[C@](C)(N)[C@H](O)[C@H](C)O2)Oc2ccc(cc2Cl)[C@H]1O [Vancomycin] | – | MIC (Bifidobacterium animalis, BIF1, read-out: CMI (minimum inhibitory concentration of antibiotics)): 1 µg/mL (≈ 0.69 µM)
8 | Gentamicin | – | CMI (minimum inhibitory concentration of antibiotics) (obtained for strain BIF-1): 64 µg/mL
